According to patent US6797699B1, “Neuroprotective agents” (University of Southampton, priority 1997, dated 2004):

How the values were obtained:
Adult male Wistar rats = assay: Global forebrain ischaemia in vivo; set-up: species or system Wistar rat; conditions: 1 mg/kg 15 minutes prior to 15 minutes global forebrain ischaemia; assessed 24 hours after; vs vehicle
Protocol: Animals were anaesthetised as described above, and a thermistor inserted into the left temporal muscle for recording of body temperature. A dorsal midline skin incision was made in the neck and using microsurgery, the vertebral arteries were identified and occluded using a monopolar electrode at the level of C 1. The incision was closed, animals allowed to recover from anaesthesia and returned to their cages for 24 hours. After this time, animals were re-anaesthetised and the common carotid arteries (CCAs) exposed. Animals were divided into two groups. Group 1 received 0.25-0.3 ml of a 1 mg/ml solution of L-ArgSp (final dose 1 mg/kg) while group 2 received 0.25-0.3 ml of sterile distilled water. Samples were prepared independently and randomised prior to injection. Animals were injected 15 minutes prior to occlusion of the CCAs with microvascular clips for 15 minutes. After this time, the skin was closed, and animals allowed to recover. After 24 hours animals were terminally anaesthetised and transcardially perfused with 1% paraformaldehyde and the brains removed and processed for histology. A blinded observer determined the number of live and dead neurones in the CA1, CA3 fields of the pyramidal cell layer, and the dentate gyrus granule cell layer from haematoxylin and eosin stained coronal sections.

[1] = test system: anaesthetised male Wistar rats; assay: Blood flow studies (mean arterial blood pressure after intravenous injection); format: in vivo, Wistar rat; conditions: for MABP (mmHg): pre-injection 79.9 ± 3.9, four observations
Protocol: Adult male Wistar rats (250-300 g) were initially anesthetized with 4% halothane and subsequently anaesthesia was maintained with 1.5% halothane mixed in […] in O2. The femoral artery was cannulated for continuous blood pressure recording. The femoral vein was also cannulated to allow injection of the compound. Animals were allowed 15-30 minutes to stabilise and were then injected with 0.25-0.3 ml of a 1 mg/ml solution of L-ArgSp. Following injection of the compound, rats were continuously monitored for 60 minutes. After this time, anaesthesia was terminated and rats allowed to waken. In these studies, measurement was taken of the mean arterial blood pressure (MABP) induced following an intravenous injection of 1 mg/kg L-ArgSp into the femoral vein of anaesthetised male Wistar rats. MABP was calculated immediately prior to injection of L-ArgSp (pre-injection) and 30 seconds and 10 minutes post-injection. Data are presented as mean […] of four observations.

[2] = test system: CA1 pyramidal cell layer of organotypic hippocampal slice cultures; assay: Hypoxic neuronal damage in organotypic hippocampal slice cultures (propidium iodide fluorescence); format: cell-based, Wistar rat; conditions: 300 μM for 24 hours
[3] = test system: NMDA receptor-mediated neurotoxicity in organotypic hippocampal slice cultures; assay: NMDA receptor-mediated neurotoxicity in organotypic hippocampal slice cultures; format: cell-based, Wistar rat; conditions: 300 μM throughout the experiment, PI at 24 hours
Protocol: Organotypic hippocampal slice cultures were prepared and maintained as described above. NMDA was prepared as a 50 mM stock solution in distilled water, and diluted as required in SF medium. Neurotoxicity was induced by placing cultures in SF medium containing either 10 μM or […] NMDA for 180 minutes. After this time, cultures were replated in SF-medium and maintained for 24 hours in the incubator. Either 300 μM L-ArgSp or vehicle (SF medium) was added to the culture medium pre-, during and post-NMDA exposure. Throughout the duration of the experiment, 5 μg/ml PI was included in the medium. After 24 hours, neuronal damage was determined by PI fluorescence imaging and quantified as described previously.

N=C(N)NCCCC(N)C(=O)NCCCNCCCCN [Compound A, N′-L-Arginylspermidine]
neuronal loss in CA1, CA3 and dentate gyrus (in words) (Adult male Wistar rats): neuronal loss was significantly attenuated | effect on body temperature ([1]; 1 mg/kg intravenous): No effect | effect on heart rate ([1]; 1 mg/kg intravenous): No effect | ill effects on the animals following wakening ([1]; 1 mg/kg intravenous): no ill effects | reduction in MABP (significance, in words) ([1]; 1 mg/kg intravenous): not statistically significant | % Charge ([1]; 1 mg/kg intravenous, 30 secs post-injection vs pre-injection): −9.6% | MABP (mmHg) ([1]; 1 mg/kg intravenous, 30 secs post-injection): 72.2 ± 5.1 mmHg | % Charge ([1]; 1 mg/kg intravenous, 10 minutes post-injection vs pre-injection): −0.9% | MABP (mmHg) ([1]; 1 mg/kg intravenous, 10 minutes post-injection): 79.2 ± 6.5 mmHg | blood pressure recordings (in words) ([1]; 1 mg/kg intravenous, 60 minutes after injection): identical to those 10 minutes post-drug administration | long-term behavioural deficits ([1]; 1 mg/kg, five rats recovered for three days): no long-term behavioural deficits have been observed | effect on blood flow compared with FTX (in words) ([1]; rat, in vivo): less adverse effect on blood flow than FTX | PI fluorescence above baseline after incubation without hypoxia [2]: no increase in PI fluorescence above baseline was observed | damage produced by NMDA (PI fluorescence, in words) ([3]; 10 μM NMDA for 180 minutes): did not reduce the damage | damage produced by NMDA (PI fluorescence, in words) ([3]; 30 μM NMDA for 180 minutes): did not reduce the damage
